Measured values reported in patent US11524966B1 (Valo Early Discovery, Inc., priority 2017, dated 2022).

Target: T1, USP25 (USP25-His6, Boston Biochem E-546) (Homo sapiens, UniProt Q9UHP3)
T1 construct: His6; purchased Boston Biochem E-546
T1 sequence (Q9UHP3 1-1055): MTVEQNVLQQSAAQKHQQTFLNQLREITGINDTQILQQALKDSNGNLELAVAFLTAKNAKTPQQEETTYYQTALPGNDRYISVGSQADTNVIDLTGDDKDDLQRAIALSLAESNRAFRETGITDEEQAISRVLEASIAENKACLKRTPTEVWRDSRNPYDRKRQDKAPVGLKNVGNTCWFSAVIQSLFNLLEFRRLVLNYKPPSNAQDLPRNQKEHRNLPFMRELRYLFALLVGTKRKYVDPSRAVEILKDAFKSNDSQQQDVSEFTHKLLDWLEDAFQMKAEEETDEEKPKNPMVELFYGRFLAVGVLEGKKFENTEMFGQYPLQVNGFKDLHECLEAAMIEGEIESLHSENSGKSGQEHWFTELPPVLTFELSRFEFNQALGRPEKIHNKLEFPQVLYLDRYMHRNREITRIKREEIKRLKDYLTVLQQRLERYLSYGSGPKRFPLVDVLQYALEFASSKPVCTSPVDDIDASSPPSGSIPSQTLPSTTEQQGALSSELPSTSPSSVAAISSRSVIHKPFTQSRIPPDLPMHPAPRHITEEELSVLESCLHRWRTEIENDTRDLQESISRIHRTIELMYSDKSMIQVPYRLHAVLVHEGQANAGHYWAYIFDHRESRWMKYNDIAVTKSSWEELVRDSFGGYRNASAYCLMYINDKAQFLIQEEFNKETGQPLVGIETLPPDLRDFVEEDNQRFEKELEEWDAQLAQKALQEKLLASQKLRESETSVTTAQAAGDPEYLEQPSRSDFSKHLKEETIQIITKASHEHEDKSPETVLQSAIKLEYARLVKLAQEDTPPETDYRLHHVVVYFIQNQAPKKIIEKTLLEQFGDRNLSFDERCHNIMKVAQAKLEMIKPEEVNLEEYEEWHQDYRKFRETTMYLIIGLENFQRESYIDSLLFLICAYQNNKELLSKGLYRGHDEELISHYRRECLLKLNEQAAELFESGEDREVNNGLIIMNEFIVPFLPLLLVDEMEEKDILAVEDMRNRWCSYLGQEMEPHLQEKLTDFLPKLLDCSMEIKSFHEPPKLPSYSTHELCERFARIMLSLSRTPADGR
Test: Ubiquitin-Rhodamine 110 Assay for USP25 Activity, Example A-2
Type: biochemical
Settings: Ubiquitin-Rhodamine 110 assay, Example A-2; read-out: USP25 A-2 IC50 range
Procedure, shortened: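 Fluorescence (ex 485, em 535 nm) of cleaved ubiquitin-rhodamine 110 (25 nM, below Km) gave IC50 via 4-parameter logistic fit. Reaction: 45 min, room temperature, citric acid stop, after 30 min compound preincubation with 75 pM USP25-His6 in 20 mM Tris pH 8.0, 3 mM BME, 0.03% BGG, 0.01% Triton X-100; top dose 25 μM.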

Structure (SMILES): Cc1ccc2c(N)c(C(=O)N[C@H]3COc4c(F)c(N5CC6CCC(C5)N6)cc(F)c4C3)oc2n1 [Example 172, 3-amino-N-[(3R)-7-{3,8-diazabicyclo[3.2.1]octan-3-yl}-5,8-difluoro-3,4-dihydro-2H-1-benzopyran-3-yl]-6-methylfuro[2,3-b]pyridine-2-carboxamide]
- IC50: > 2000 nM

Structure (SMILES): Cc1ccc2c(N)c(C(=O)N[C@H]3COc4c(ccc(N5CC6CNCC(C5)O6)c4F)C3)sc2n1 [Example 105, 3-amino-N-[(3R)-8-fluoro-7-{9-oxa-3,7-diazabicyclo[3.3.1]nonan-3-yl}-3,4-dihydro-2H-1-benzopyran-3-yl]-6-methylthieno[2,3-b]pyridine-2-carboxamide]
- IC50: 1 to 50 nM

Structure (SMILES): CO[C@@H]1CN(c2ccc3c(c2)OC[C@H](NC(=O)c2sc4nc(C)sc4c2N)C3)C[C@@H]1N [Example 149, 6-amino-N-[(3R)-7-[(3S,4R)-3-amino-4-methoxypyrrolidin-1-yl]-3,4-dihydro-2H-1-benzopyran-3-yl]-2-methylthieno[2,3-d][1,3]thiazole-5-carboxamide]
- IC50: 200 to 2000 nM

Structure (SMILES): Cc1ccc2c(N)c(C(=O)N[C@H]3COc4cc(N5C[C@H](OC6CCC6)[C@@H](N)C5)ccc4C3)sc2n1 [Example 141, 3-amino-N-[(3R)-7-[(3S,4S)-3-amino-4-cyclobutoxypyrrolidin-1-yl]-3,4-dihydro-2H-1-benzopyran-3-yl]-6-methylthieno[2,3-b]pyridine-2-carboxamide]
- IC50: 50 to 200 nM

Structure (SMILES): COC[C@H]1CN(c2ccc3c(c2)OC[C@H](NC(=O)c2sc4nc(C)ccc4c2N)C3)CCN1 [Example 157, 3-amino-N-[(3R)-7-[(3R)-3-(methoxymethyl)piperazin-1-yl]-3,4-dihydro-2H-1-benzopyran-3-yl]-6-methylthieno[2,3-b]pyridine-2-carboxamide]
- IC50: 200 to 2000 nM

Structure (SMILES): Cc1ccc2c(N)c(C(=O)N[C@H]3CCc4cc(N5CC6CCC(C5)N6)ccc4C3)oc2n1 [Example 171, 3-amino-N-[(2S)-6-{3,8-diazabicyclo[3.2.1]octan-3-yl]-1,2,3,4-tetrahydronaphthalen-2-yl]-6-methylfuro[2,3-b]pyridine-2-carboxamide]
- IC50: > 2000 nM

Structure (SMILES): CCO[C@@H]1CN(c2ccc3c(c2)OC[C@H](NC(=O)c2sc4nc(C)ccc4c2N)C3)C[C@@H]1N [Example 151, 3-amino-N-[(3R)-7-[(3S,4R)-3-amino-4-ethoxypyrrolidin-1-yl]-3,4-dihydro-2H-1-benzopyran-3-yl]-6-methylthieno[2,3-b]pyridine-2-carboxamide]
- IC50: 200 to 2000 nM

Structure (SMILES): Cc1ccc2c(N)c(C(=O)N[C@H]3COc4cc(N5CC[C@@H]6CNC[C@@H]65)ccc4C3)sc2n1 [Example 165, N-[(3R)-7-[(3aR,6aR)-octahydropyrrolo[2,3-c]pyrrol-1-yl]-3,4-dihydro-2H-1-benzopyran-3-yl]-3-amino-6-methylthieno[2,3-b]pyridine-2-carboxamide]
- IC50: 50 to 200 nM

Structure (SMILES): COC[C@@H]1CN(c2ccc3c(c2)OC[C@H](NC(=O)c2sc4nc(C)ccc4c2N)C3)C[C@H]1N [Example 163, 3-amino-N-[(3R)-7-[(3S,4R)-3-amino-4-(methoxymethyl)pyrrolidin-1-yl]-3,4-dihydro-2H-1-benzopyran-3-yl]-6-methylthieno[2,3-b]pyridine-2-carboxamide]
- IC50: 200 to 2000 nM
